Test results reported in patent US20080299195A1, “USE OF RANOLAZINE FOR ELEVATED BRAIN-TYPE NATRIURETIC PEPTIDE” (priority 2007, published 2008).

System: patients with non-ST elevation ACS
Assay: MERLIN-TIMI 36 trial: randomized, double-blind, placebo-controlled trial of ranolazine, stratified by baseline BNP
Type: in vivo, human
Details: ranolazine vs placebo
Excerpt: Ranolazine is believed to exert anti-ischemic effects through a reduction in myocardial cellular sodium and calcium overload with a consequent reduction in wall stress. B-type natriuretic peptide (BNP) is released in response to increased wall stress and is a potent indicator of risk in acute coronary syndromes (ACS). This study was a prospective evaluation of the interaction between BNP and the effect of ranolazine as part of a randomized, double-blind, placebo-controlled trial.
Patients with a non-ST elevation acute coronary syndrome (NSTEACS), refers to patients with chest discomfort or anginal equivalent occurring at rest, lasting ≧10 minutes, and consistent with myocardial ischemia, and the presence of ischemic symptoms (≧5 minutes) at rest within 48 hours of admittance which may include index episode, and having at least one of the following indicators of moderate-high risk: • Elevated cardiac troponin (above local MI limit) or CK-MB (>ULN) • ST-depression (horizontal or down-sloping) >0.1 mV • Diabetes mellitus (requiring insulin or oral therapy) • A Risk Score of >3 wherein one point is assigned for each of the following variables and a total score calculated as the arithmetic sum: • Age >65 years; • Known CAD (prior MI, CABG, PCI or angiographic stenosis ≧50%); • Three or more cardiac risk factors (DM, elevated cholesterol, hypertension, family history); • More than one episode of ischemic discomfort at rest in the prior 24 hours; • Chronic aspirin use in the 7 days preceding onset of symptoms; • ST segment depression ≧0.05 mV; and • Elevated cardiac troponin or CK-MB.
Plasma BNP were measured (ADVIA® BNP) at baseline (N=4543), 14 days (N=4079), and the Final Visit (N=3328) of the patients with non-ST elevation ACS randomized to ranolazine or placebo in the MERLIN-TIMI 36 trial. During the trial 200 mg of ranolazine (or matching placebo) was administered intravenously over 1 hour, followed by an 80 mg/hr intravenous infusion, which was reduced to 40 mg/hr for patients with an estimated creatinine clearance of less than […] (<0.50 mL/s), and was continued for 12 to 96 hours. On or near the completion (about 1 hour before completion) of the infusion, transition from the IV solution to ranolazine extended release (or matching placebo) occurred and ranolazine extended release (or matching placebo) continued orally at a dose of 1000 mg twice daily until the end of the study. [Morrow, et al., J. Am. Med. Assoc'n. 297 (16), 1775-1783, 2007]. Patients were stratified using BNP >80 pg/mL based upon prior work with this assay. The primary endpoint of the trial was a composite of cardiovascular death, myocardial infarction, or recurrent ischemia (CVD/MI/RI).

## COc1ccccc1OCC(O)CN1CCN(CC(=O)Nc2c(C)cccc2C)CC1 (racemic) [ranolazine, (±)-N-(2,6-dimethylphenyl)-4-[2-hydroxy-3-(2-methoxyphenoxy)propyl]-1-piperazine-acetamide]
Patients with BNP>80 pg/mL, CI 0.35-0.84, p=0.005
  HR for endpoint component of worsening angina: 0.55
Patients with BNP>80 pg/mL, IV 200 mg over 1 h, then 80 mg/hr for 12 to 96 hours, then extended release 1000 mg twice daily orally, 95% CI 0.66-0.94, p=0.009
  HR for primary endpoint (composite of cardiovascular death, myocardial infarction, or recurrent ischemia, CVD/MI/RI): 0.79
Patients with a negative BNP result, p-interaction=0.052
  effect on primary endpoint (CVD/MI/RI): lack of detectable effect
95% CI 0.63-1.28, p=0.55, p-interaction 0.079
  HR for endpoint component of worsening angina: 0.90
